Reference: patent US7074789B2, “Kinase inhibitors” (Amgen Inc., priority 1999, dated 2006)
Where two headings read alike, the source gives them in different places.

Legend:
Type in all cases: biochemical
[1] = molecular target: T1, Lck (Homo sapiens, UniProt P06239); assay: Kinase inhibition assay (33P transfer), Lck; settings: read-out: Lck-1
T1 construct: Kinases are expressed as either kinase domains or full length constructs; made in house
Summary of the method: (§1)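 Activity was read as 33P incorporation, counted by liquid scintillation after a 0.5% phosphoric acid wash, into poly(Glu,Tyr) 4:1 or poly(Arg,Ser) 3:1 substrates coated on plates. Enzymes were tagged (GST or polyHis) kinase domains or full-length proteins from bacterial or insect-cell expression, sometimes with regulatory polypeptides.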

[2] = molecular target: T2, Zap-70 (Homo sapiens, UniProt P43403); assay: Kinase inhibition assay (33P transfer), Zap-70; settings: read-out: Zap-1
T2 construct: Kinases are expressed as either kinase domains or full length constructs; made in house
T2 sequence (P43403 1-619): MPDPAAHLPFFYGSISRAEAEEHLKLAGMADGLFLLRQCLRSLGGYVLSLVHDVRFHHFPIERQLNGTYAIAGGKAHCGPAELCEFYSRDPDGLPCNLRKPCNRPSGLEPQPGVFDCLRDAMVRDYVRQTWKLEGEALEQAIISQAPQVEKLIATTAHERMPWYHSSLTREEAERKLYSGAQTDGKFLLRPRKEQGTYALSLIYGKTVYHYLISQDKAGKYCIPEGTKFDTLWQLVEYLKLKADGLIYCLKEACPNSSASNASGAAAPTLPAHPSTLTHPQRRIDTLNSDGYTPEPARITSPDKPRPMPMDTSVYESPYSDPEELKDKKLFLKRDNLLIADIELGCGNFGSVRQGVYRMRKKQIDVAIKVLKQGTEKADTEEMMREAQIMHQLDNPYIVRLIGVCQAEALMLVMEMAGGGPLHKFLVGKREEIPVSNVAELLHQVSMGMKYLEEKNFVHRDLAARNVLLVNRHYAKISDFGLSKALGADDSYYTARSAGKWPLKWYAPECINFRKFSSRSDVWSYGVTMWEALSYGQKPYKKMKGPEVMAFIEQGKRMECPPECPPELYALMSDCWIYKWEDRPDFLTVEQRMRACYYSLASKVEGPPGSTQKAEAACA
Summary of the method: as §1

[3] = molecular target: T3, PDGFRB (Homo sapiens, UniProt P09619); assay: Kinase inhibition assay (33P transfer), PDGFRB; settings: read-out: PDGFRB-1
T3 construct: Kinases are expressed as either kinase domains or full length constructs; made in house

[4] = molecular target: T4, IGFR-1 (Homo sapiens, UniProt P08069); assay: Kinase inhibition assay, IGFR-1 (Table 2); settings: Table 2, kinase inhibition class
T4 construct: Kinases are expressed as either kinase domains or full length constructs; made in house
T4 sequence (P08069 31-1367): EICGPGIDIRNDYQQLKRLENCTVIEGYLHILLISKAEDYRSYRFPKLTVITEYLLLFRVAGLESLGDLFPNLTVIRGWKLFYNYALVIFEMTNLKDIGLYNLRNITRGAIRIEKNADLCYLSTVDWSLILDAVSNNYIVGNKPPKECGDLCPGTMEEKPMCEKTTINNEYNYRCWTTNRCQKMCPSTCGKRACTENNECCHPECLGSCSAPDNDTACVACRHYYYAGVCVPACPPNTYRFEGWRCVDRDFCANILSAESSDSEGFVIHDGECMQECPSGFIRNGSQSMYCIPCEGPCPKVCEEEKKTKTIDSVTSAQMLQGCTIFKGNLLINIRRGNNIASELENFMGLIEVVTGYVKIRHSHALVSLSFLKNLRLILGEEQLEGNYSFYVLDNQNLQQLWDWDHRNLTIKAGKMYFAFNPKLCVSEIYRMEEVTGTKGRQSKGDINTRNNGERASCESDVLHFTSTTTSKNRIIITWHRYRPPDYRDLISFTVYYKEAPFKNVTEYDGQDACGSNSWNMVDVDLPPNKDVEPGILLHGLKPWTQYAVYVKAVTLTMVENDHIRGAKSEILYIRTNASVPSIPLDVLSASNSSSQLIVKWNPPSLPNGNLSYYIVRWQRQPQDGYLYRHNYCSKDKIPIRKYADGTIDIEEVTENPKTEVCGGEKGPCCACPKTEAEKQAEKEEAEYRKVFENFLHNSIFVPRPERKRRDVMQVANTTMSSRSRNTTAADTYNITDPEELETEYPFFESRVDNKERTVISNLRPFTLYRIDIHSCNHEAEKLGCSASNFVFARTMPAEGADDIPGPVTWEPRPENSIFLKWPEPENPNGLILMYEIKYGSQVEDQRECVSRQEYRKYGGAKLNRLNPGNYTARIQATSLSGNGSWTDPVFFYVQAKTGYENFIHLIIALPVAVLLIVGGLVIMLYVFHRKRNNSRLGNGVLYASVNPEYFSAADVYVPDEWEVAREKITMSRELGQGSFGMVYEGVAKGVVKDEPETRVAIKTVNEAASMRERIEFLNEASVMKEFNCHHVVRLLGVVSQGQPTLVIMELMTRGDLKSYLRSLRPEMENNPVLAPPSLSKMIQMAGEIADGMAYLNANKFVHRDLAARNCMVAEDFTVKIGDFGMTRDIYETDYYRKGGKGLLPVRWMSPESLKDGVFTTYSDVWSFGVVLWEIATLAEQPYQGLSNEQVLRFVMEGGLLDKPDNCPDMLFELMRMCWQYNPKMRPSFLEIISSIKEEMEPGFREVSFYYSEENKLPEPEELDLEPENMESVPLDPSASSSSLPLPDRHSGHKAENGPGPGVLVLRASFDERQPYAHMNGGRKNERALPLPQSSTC

[5] = molecular target: T5, AKT (Homo sapiens, UniProt Q9Y243); assay: Kinase inhibition assay (33P transfer), AKT; settings: Table 2, kinase inhibition class; read-out: AKT3-1
T5 construct: Kinases are expressed as either kinase domains or full length constructs; made in house
T5 sequence (Q9Y243 whole entry, the tested form may be a part): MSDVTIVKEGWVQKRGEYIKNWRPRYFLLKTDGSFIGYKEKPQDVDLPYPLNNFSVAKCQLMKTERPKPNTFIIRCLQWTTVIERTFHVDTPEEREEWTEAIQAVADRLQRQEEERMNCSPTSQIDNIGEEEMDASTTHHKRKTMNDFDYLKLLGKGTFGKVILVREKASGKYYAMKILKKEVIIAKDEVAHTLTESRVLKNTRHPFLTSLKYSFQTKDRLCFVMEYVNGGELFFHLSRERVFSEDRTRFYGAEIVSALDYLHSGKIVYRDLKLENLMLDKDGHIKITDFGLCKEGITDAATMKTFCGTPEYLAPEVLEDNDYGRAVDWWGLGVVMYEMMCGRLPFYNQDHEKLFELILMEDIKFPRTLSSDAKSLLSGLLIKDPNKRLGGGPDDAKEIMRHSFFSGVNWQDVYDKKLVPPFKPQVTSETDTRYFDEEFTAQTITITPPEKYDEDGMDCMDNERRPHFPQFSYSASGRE
Summary of the method: as §1

[6] = molecular target: T6, Kdr (Homo sapiens, UniProt P35968); assay: Kinase inhibition assay (33P transfer), Kdr
T6 construct: Kinases are expressed as either kinase domains or full length constructs; made in house
T6 sequence (P35968 20-1356, species assumed): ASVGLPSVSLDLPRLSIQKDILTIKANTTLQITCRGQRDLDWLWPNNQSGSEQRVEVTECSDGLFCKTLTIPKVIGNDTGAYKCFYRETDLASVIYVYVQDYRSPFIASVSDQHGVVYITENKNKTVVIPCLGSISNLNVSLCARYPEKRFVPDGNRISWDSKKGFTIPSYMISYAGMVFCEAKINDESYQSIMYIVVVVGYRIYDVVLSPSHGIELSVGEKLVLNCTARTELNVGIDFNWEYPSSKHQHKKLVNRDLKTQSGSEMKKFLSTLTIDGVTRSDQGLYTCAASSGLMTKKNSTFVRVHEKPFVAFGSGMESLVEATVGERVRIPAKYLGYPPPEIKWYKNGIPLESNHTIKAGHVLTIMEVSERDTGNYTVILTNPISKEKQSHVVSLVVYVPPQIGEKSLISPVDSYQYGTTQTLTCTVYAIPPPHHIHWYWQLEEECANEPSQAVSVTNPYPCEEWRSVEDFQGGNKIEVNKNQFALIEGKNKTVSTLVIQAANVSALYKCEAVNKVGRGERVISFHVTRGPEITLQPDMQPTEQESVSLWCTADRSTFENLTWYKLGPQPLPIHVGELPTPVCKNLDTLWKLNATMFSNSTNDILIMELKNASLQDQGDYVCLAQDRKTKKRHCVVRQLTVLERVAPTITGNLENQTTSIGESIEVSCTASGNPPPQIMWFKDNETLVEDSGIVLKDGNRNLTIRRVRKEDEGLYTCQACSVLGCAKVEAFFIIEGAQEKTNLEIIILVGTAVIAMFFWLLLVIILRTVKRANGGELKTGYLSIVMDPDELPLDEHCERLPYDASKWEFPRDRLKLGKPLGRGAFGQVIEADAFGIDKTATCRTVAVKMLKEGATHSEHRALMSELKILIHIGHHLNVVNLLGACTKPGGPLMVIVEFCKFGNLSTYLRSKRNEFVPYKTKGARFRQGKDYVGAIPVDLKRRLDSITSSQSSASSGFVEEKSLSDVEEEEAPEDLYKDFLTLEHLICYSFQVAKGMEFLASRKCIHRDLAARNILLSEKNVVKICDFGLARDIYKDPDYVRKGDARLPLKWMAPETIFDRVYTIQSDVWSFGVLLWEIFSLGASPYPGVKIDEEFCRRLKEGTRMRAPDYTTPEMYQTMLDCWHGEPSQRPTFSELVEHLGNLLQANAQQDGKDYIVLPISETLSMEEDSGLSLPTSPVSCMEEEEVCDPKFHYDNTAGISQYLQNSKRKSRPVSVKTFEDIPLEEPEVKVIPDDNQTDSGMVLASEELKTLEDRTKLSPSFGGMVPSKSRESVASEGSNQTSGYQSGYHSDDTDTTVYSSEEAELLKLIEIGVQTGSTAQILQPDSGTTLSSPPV
Summary of the method: as §1

[7] = molecular target: T7, c-Met (Homo sapiens, UniProt P08581); assay: Kinase inhibition assay (33P transfer), c-Met; settings: Table 2, kinase inhibition class; read-out: Met-1
T7 construct: Kinases are expressed as either kinase domains or full length constructs; made in house
T7 sequence (P08581 25-1390): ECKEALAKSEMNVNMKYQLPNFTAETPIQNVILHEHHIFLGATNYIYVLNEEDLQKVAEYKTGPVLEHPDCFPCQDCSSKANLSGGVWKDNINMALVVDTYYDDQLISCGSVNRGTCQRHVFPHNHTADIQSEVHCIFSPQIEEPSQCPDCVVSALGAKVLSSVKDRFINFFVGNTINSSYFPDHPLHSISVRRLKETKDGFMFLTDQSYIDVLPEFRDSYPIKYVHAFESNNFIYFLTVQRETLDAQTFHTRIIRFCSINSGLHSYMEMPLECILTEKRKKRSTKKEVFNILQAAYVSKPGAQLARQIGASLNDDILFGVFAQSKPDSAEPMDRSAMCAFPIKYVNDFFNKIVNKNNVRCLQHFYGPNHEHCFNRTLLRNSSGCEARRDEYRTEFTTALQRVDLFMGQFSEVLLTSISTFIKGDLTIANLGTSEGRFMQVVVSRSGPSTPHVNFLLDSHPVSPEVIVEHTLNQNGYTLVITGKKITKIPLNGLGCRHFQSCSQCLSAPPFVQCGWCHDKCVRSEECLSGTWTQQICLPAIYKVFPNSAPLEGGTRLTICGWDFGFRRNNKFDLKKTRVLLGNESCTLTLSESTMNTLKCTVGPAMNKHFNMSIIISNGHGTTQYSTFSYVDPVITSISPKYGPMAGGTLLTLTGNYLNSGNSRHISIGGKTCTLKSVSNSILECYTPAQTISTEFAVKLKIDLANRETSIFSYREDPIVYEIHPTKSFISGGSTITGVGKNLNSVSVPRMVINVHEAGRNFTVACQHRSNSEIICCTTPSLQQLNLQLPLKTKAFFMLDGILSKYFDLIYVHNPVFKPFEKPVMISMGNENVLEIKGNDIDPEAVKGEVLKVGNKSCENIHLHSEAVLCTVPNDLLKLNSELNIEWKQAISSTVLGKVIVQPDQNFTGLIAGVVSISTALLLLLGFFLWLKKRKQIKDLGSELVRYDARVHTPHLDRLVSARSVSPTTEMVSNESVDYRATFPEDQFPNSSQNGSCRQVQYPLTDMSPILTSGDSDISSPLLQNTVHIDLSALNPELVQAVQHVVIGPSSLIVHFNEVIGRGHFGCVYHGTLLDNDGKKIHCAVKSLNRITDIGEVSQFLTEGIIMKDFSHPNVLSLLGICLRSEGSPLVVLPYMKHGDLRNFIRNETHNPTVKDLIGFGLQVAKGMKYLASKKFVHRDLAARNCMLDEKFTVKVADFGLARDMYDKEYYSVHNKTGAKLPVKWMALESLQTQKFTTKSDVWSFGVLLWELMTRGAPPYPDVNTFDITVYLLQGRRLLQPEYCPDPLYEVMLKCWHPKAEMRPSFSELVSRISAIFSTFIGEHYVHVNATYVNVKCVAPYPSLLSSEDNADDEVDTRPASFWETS
Summary of the method: (§2)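 IC50: inhibitor concentration lowering 33P incorporation into immobilised substrate by 50%. Label transferred from ATP to poly(Glu,Tyr) 4:1 or poly(Arg,Ser) 3:1 is measured after a 0.5% phosphoric acid wash by liquid scintillation.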

[8] = molecular target: T8, EGFR (Homo sapiens, UniProt P00533); assay: Kinase inhibition assay (33P transfer), EGFR; settings: Table 2, kinase inhibition class; read-out: EGFR-1
T8 construct: Kinases are expressed as either kinase domains or full length constructs; made in house
Summary of the method: as §2

[9] = molecular target: T9, ErbB2 (Homo sapiens, UniProt P04626); assay: Kinase inhibition assay (33P transfer), ErbB2; settings: read-out: ErbB2-2
T9 construct: Kinases are expressed as either kinase domains or full length constructs; made in house
Summary of the method: as §2

[10] = molecular target: T10, Itk (Homo sapiens, UniProt Q08881); assay: Kinase inhibition assay (33P transfer), Itk; settings: read-out: Itk-1
T10 construct: Kinases are expressed as either kinase domains or full length constructs; made in house
T10 sequence (Q08881 1-620): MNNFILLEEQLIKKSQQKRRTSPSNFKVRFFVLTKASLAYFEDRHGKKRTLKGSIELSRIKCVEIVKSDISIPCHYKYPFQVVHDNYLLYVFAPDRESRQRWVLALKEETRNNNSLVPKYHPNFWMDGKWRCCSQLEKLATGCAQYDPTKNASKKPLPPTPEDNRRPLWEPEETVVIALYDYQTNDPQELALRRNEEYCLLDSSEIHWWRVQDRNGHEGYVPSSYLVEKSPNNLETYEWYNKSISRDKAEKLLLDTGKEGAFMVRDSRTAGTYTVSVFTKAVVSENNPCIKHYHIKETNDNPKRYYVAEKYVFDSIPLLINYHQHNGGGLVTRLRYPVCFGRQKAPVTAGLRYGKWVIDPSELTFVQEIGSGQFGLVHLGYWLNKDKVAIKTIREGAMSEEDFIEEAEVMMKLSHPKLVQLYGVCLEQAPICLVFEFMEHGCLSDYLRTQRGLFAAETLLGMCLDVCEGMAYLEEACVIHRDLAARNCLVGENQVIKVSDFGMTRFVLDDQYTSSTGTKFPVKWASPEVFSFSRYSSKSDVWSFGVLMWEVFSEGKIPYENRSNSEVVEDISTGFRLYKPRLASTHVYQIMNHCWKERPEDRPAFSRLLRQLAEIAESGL
Summary of the method: as §2

T1 sequence (P06239 whole entry, species assumed, the tested form may be a part): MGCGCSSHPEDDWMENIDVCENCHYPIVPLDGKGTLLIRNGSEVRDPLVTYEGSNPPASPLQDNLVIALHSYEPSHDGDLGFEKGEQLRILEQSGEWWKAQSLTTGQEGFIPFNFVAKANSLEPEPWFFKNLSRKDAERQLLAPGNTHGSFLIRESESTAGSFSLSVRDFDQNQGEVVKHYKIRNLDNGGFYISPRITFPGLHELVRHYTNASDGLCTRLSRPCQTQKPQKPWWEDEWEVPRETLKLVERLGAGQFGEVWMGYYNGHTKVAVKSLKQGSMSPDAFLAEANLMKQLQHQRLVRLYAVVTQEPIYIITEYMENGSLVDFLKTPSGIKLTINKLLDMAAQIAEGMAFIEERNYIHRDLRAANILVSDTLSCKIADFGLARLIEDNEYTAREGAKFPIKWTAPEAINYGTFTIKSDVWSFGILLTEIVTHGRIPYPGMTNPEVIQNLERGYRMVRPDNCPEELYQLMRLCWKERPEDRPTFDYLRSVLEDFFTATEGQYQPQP

Row | IC50 [1] [µM] | IC50 [2] [µM] | IC50 [3] [µM] | IC50 [4] [µM] | IC50 [5] [µM] | IC50 ([6]; read-out: KDR-1) [µM] | IC50 [7] [µM] | IC50 [8] [µM] | IC50 [9] [µM] | IC50 [10] [µM] | SMILES | IC50 ([6]; KDR-1) [µM]
1 | < 0.953 | > 10.7 | 0.953 to 5.72 | 5.72 to 8.34 | > 10.7 | 0.953 to 5.72 | 0.953 to 5.72 | < 0.953 | < 0.953 | > 10.7 | COc1cc(Nc2ncnc(N(C)c3ccc(F)c(Cl)c3)n2)cc(OC)c1OC [Compound 710] | 
2 | > 11.6 | > 11.6 | > 11.6 | > 11.6 | > 11.6 | > 11.6 | > 11.6 | 1.03 to 6.18 | > 11.6 | > 11.6 | CN(C)CCNc1ncnc(Nc2ccc3c(cnn3Cc3ccccc3)c2)n1 [Compound 733] | 
3 | < 0.712 | > 8.01 | < 0.712 | > 8.01 | > 8.01 | < 0.712 | > 8.01 | 4.27 to 6.23 | > 8.01 | > 8.01 | COc1cc(Nc2ncnc(-c3cccnc3NCc3ccc(F)cc3)n2)cc(OC)c1OCCN1CCOCC1 [Compound 564] | 
4 | > 11.3 | > 11.3 | > 11.3 | > 11.3 | > 11.3 | > 11.3 | > 11.3 | > 11.3 | > 11.3 | > 11.3 | CCOC(=O)N1CCC(Nc2ncnc(N3CCCc4cc(C)ccc43)n2)CC1 [Compound 765] | 
5 | 5.89 to 8.59 | > 11 | > 11 | > 11 | 8.59 to 11 | 5.89 to 8.59 | > 11 | 8.59 to 11 | 8.59 to 11 | > 11 | COc1cc(Nc2ncnc(N[C@H]3CCCc4ccccc43)n2)cc(OC)c1OC [Compound 619] | 
6 | > 12.4 | > 12.4 | 9.62 to 12.4 | < 1.1 | > 12.4 | > 12.4 | > 12.4 | < 1.1 | > 12.4 | 1.1 to 6.6 | Clc1cccc(Nc2ncnc(Nc3cc(-c4ccccc4)n[nH]3)n2)c1 [Compound 1009] | 
7 | 5.54 to 8.09 | > 10.4 | 0.924 to 5.54 | > 10.4 | > 10.4 | 0.924 to 5.54 | > 10.4 | < 0.924 | > 10.4 | > 10.4 | CC(=O)NS(=O)(=O)c1ccc(Nc2ncnc(N(C)c3cccc(Cl)c3)n2)cc1 [Compound 751] | 
8 | > 14.4 | > 14.4 | > 14.4 | > 14.4 | > 14.4 | > 14.4 | > 14.4 | 11.2 to 14.4 | > 14.4 | > 14.4 | COCCCNc1ncnc(N2CCCc3cc(C)ccc32)n1 [Compound 762] | 
9 | 1.05 to 6.29 | > 11.8 | 1.05 to 6.29 | 1.05 to 6.29 | > 11.8 | 6.29 to 9.18 | > 11.8 | 1.05 to 6.29 | > 11.8 | > 11.8 | COc1cc(Nc2ncnc(NCCc3ccccc3)n2)cc(OC)c1OC [Compound 628] | 
10 | > 14.2 | > 14.2 | > 14.2 | > 14.2 | > 14.2 | > 14.2 | > 14.2 | 1.26 to 7.56 | 1.26 to 7.56 | > 14.2 | Nc1ncnc(Nc2ccc3c(cnn3Cc3ccccc3)c2)n1 [Compound 665] | 
11 | > 9.67 | > 9.67 | > 9.67 | > 9.67 | > 9.67 | > 9.67 | > 9.67 | > 9.67 | > 9.67 | > 9.67 | COc1cc(Nc2ncnc(Nc3cccc(CN4CCN(C)CC4)c3)n2)cc(OC)c1OC [Compound 1047] | 
12 | > 11.6 | > 11.6 | > 11.6 | > 11.6 | > 11.6 | > 11.6 | > 11.6 | > 11.6 | > 11.6 | > 11.6 | COc1ccc(Nc2ncnc(NCCCN3CCN(C)CC3)n2)cc1OC [Compound 786] | 
13 | 1.12 to 6.75 | 1.12 to 6.75 | < 1.12 | 1.12 to 6.75 | > 12.6 | 1.12 to 6.75 | 1.12 to 6.75 | < 1.12 | 1.12 to 6.75 | 1.12 to 6.75 | Fc1ccc(Nc2ncnc(Nc3ccc4[nH]ncc4c3)n2)cc1Cl [Compound 717] | 
14 | < 0.982 | > 11 | < 0.982 | < 0.982 | > 11 | 0.982 to 5.89 | > 11 | 0.982 to 5.89 | < 0.982 | 8.59 to 11 | COc1cc(Nc2ncnc(Nc3ccc4c(cnn4C)c3)n2)cc(OC)c1OC [Compound 557] | 
15 | > 17.6 | > 17.6 | > 17.6 | > 17.6 | > 17.6 | > 17.6 | > 17.6 | > 17.6 | > 17.6 | > 17.6 | CN(c1cccc(Cl)c1)c1ncnc(Cl)n1 [Compound 701, N-methyl-2-chloro-4(3-chloroanilino)-1,3,5-triazine] | 
16 | < 1.02 | 6.1 to 8.9 | < 1.02 | < 1.02 | > 11.4 | 1.02 to 6.1 | 6.1 to 8.9 | 1.02 to 6.1 | 1.02 to 6.1 | 1.02 to 6.1 | COc1cc(Nc2ncnc(Nc3ccc4c(c3)CCC4)n2)cc(OC)c1OC [Compound 629] | 
17 | 0.966 to 5.79 | > 10.9 | 8.45 to 10.9 | < 0.966 | > 10.9 | 5.79 to 8.45 | 5.79 to 8.45 | < 0.966 | 0.966 to 5.79 | 8.45 to 10.9 | COC(=O)Cc1cccc(Nc2ncnc(Nc3cccc(Br)c3)n2)c1 [Compound 540] | 
18 | > 11.4 | > 11.4 | > 11.4 | 1.01 to 6.07 | > 11.4 | > 11.4 | > 11.4 | 1.01 to 6.07 | 6.07 to 8.85 | 1.01 to 6.07 | c1ccc(Cn2ncc3cc(Nc4ncnc(Nc5ncccn5)n4)ccc32)cc1 [Compound 738] | 
19 | > 8.53 | > 8.53 | > 8.53 | > 8.53 | > 8.53 | < 0.758 | > 8.53 | > 8.53 | > 8.53 | > 8.53 | COc1ccc([C@H](C)Nc2nc3ccccc3n2-c2ncnc(Nc3cc(OC)c(OC)c(OC)c3)n2)cc1 [Compound 1046] | 

Row | SMILES | IC50 [1] [µM] | IC50 [2] [µM] | IC50 [3] [µM] | IC50 [4] [µM] | IC50 [5] [µM] | IC50 ([6]; read-out: KDR-1) [µM] | IC50 [7] [µM] | IC50 [8] [µM] | IC50 [9] [µM] | IC50 [10] [µM] | IC50 ([6]; KDR-1) [µM]
20 | COc1cc(Nc2ncnc(-n3c(NCc4ccc(O)cc4)nc4ccccc43)n2)cc(OC)c1OC [Compound 561] | < 0.801 | > 9.01 | < 0.801 | > 9.01 | > 9.01 |  | > 9.01 | > 9.01 | > 9.01 | > 9.01 | < 0.801
